Data set [1] deals with T1, human P-selectin (Homo sapiens, UniProt P16109).
T1 sequence (P16109 42-830): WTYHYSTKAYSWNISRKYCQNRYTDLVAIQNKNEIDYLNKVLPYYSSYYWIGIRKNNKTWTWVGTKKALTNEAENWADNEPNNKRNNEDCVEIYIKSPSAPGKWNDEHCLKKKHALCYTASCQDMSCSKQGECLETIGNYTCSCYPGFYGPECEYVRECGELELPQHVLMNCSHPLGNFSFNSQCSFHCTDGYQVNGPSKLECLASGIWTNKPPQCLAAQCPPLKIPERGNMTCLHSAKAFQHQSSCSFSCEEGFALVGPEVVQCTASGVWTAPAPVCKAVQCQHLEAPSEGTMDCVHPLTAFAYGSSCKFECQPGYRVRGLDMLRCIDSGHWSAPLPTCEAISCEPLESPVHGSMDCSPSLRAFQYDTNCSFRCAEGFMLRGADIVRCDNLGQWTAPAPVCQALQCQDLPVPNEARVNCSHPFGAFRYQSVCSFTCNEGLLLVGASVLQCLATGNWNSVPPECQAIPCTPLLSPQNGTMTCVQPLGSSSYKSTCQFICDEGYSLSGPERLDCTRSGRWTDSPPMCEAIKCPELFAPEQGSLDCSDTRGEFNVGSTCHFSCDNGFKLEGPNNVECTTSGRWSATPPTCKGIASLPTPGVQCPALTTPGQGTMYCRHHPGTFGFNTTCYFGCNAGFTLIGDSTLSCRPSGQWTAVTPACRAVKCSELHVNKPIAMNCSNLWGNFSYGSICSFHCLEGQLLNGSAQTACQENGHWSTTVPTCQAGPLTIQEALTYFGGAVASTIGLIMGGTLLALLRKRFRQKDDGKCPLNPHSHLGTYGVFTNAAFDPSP
The data set can be described thus: Biacore binding assay, human P-selectin. As to the method: (§1) Bound peptides were detected using Alexa-488 labeled anti-human IgG antibody (5 μg/mL). Three lectins RCA-1, AAL, and PNA were used to confirm the sequence of enzymatic steps. Monoclonal antibodies CHO131, PSG2 antibody and PL-1 were used to confirm the presence of SLex, tyrosine sulfates, and the peptide sequence, respectively. Biacore binding analysis to human P-selectin with observed rate constants for (D) GSnP-6, kon 3.1×10^5 M^−1s^−1, koff 6.9×10^3 M^−1s^−; GSn2P-6, kon6.4×10^5 M^−1s^−1, koff 6.8×10^3 M^−1s. Biacore binding analysis to mouse P-selectin with observed rate constants for (E) GsnP-6, kon 4.9×10^4 M^−1s^−1, koff 8.0×10^3 M^−1s^−; GSn2P-6 kon 5.3×10^4 M^−1s^−1, koff 9.0×10^3 M^−1s. (F) Temperature- and pH-dependent stability studies of GSnP-6.
(§2) Dissociation constants (Kd) were determined using a Biacore binding assay after initial capture of biotinylated GS(n)P-6 onto streptavidin-coated sensor chips followed by flow through of P-, L- or E-sel-Ig (2.5 to 60 μg/mL). […] The Kd of GSnP-6 to murine P-selectin was ˜9-fold lower than to human P-selectin.
A general note: SPR reads the build-up and loss of mass on a sensor chip optically.

For a further data set, the target named is T2, mouse P-selectin (Mus musculus, UniProt Q01102).
T2 sequence (Q01102 42-768): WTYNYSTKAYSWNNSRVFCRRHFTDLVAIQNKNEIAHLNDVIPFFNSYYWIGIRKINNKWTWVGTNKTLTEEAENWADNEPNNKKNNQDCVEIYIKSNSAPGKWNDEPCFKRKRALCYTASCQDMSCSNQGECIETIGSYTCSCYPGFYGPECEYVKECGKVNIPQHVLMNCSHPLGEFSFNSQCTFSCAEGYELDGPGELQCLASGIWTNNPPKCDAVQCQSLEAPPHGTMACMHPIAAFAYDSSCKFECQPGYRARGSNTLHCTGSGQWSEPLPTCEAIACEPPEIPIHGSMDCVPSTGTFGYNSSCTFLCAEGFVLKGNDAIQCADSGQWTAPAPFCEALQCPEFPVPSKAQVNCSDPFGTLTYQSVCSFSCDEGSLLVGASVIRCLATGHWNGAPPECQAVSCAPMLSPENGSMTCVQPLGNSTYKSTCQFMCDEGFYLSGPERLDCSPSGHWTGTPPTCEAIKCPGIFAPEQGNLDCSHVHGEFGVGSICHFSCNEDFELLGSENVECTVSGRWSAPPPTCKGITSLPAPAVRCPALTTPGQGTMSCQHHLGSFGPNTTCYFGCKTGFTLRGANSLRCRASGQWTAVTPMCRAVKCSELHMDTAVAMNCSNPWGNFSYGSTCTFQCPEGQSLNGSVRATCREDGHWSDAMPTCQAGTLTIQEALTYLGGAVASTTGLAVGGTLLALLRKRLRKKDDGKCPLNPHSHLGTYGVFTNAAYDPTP
The data set can be described thus: Biacore binding assay, mouse P-selectin. As for the experimental part: as §1, §2

A short description of data set [2]: Chemical stability at low pH and at high temperature (RP-HPLC). The data set is classed as physicochemical. As to conditions: sodium acetate/acetic acid buffer pH 5, 37° C.; and 2 mM phosphate buffer pH 7.5, 60° C. As to the method: as §1
The chemical stability of GSnP-6 was evaluated under low pH conditions by incubating the compound in sodium acetate/acetic acid buffer at pH 5, 37° C., as well as under high temperature conditions by incubation in 2 mM phosphate buffer at pH 7.5, 60° C. (FIG. 3E).

In data set [3] the test system is P-selectin (recombinant Ig chimera). The data set can be described thus: Microarray binding screen of glycopeptide mimics, P-selectin. Also on record: species or system human and mouse. As to conditions: selectin Ig chimeras 5-20 μg/mL, Alexa-488 anti-human IgG. As for the experimental part:
as §1
Binding affinities of PSGL-1 mimics towards selectins was initially screened using a microarray in which glycosulfopeptides and glycan standards (Sialyl Le^x, NA2, NA2,3, NA2,6 and LNnT) were printed on a NHS-activated glass slide. The slide was then incubated with recombinant Ig chimeras of P-, L-, or E-selectin (5-20 μg/mL) followed by Alexa-488 labeled anti-human IgG antibody (5 μg/mL). […] Binding of glycopeptides mimics to selectins was […] dependent and inhibited by EDTA.

Data set [4] has as its target T1, human P-selectin. Conditions: comparison value for P-selectin; read-out: Kd of native PSGL-1 (comparison value); cited from earlier work.

Like-named read-outs stand apart in the source and are kept apart here. Square brackets hold non-standard residues; d marks the D form. Ends that are not written are not given here. Peptide text beside a SMILES is read from it. * marks the point of attachment. X1 = CC(=O)N[C@@H]1[C@@H](O[C@@H]2O[C@H](CO)[C@H](O)[C@H](O)[C@H]2O)[C@@H](O)[C@@H](CO[C@@H]2O[C@H](CO)[C@@H](O[C@@H]3O[C@H](CO)[C@H](O)[C@H](O[C@]4(C(=O)O)C[C@H](O)[C@@H](NC(C)=O)[C@H]([C@H](O)[C@H](O)CO)O4)[C@H]3O)[C@H](O[C@@H]3O[C@@H](C)[C@@H](O)[C@@H](O)[C@@H]3O)[C@H]2NC(C)=O)O[C@@H]1*; Phe(4-SO3H) = N[C@@H](Cc1ccc(S(=O)(=O)O)cc1)C(=O)O; Mca = COc1ccc2c(CC(=O)*)cc(=O)oc2c1

These results are taken from patent US10253071B2, “Selectin inhibitors, composition, and uses related thereto” (Beth Israel Deaconess Medical Center, Inc., priority 2014, dated 2019).

`COc1ccc2c(CC(=O)NCCCC[C@H](N)C(=O)N[C@@H](CCC(=O)O)C(=O)N[C@@H](Cc3ccc(S(=O)(=O)O)cc3)C(=O)N[C@@H](CCC(=O)O)C(=O)N[C@@H](Cc3ccc(S(=O)(=O)O)cc3)C(=O)N[C@@H](CC(C)C)C(=O)N[C@@H](CC(=O)O)C(=O)N[C@@H](Cc3ccc(S(=O)(=O)O)cc3)C(=O)N[C@@H](CC(=O)O)C(=O)N[C@@H](Cc3ccccc3)C(=O)N[C@@H](CC(C)C)C(=O)N3CCC[C@H]3C(=O)N[C@@H](CCC(=O)O)C(=O)N[C@H](C(=O)N[C@@H](CCC(=O)O)C(=O)N3CCC[C@H]3C(=O)N[C@@H](CC(C)C)C(=O)O)[C@@H](C)O[C@H]3O[C@H](CO[C@@H]4O[C@H](CO)[C@@H](O[C@@H]5O[C@H](CO)[C@H](O)[C@H](O[C@]6(C(=O)O)C[C@H](O)[C@@H](NC(C)=O)[C@H]([C@H](O)[C@H](O)CO)O6)[C@H]5O)[C@H](O[C@@H]5O[C@@H](C)[C@@H](O)[C@@H](O)[C@@H]5O)[C@H]4NC(C)=O)[C@H](O)[C@H](O[C@@H]4O[C@H](CO)[C@H](O)[C@H](O)[C@H]4O)[C@H]3NC(C)=O)cc(=O)oc2c1` [GSn2P-6] (H-K(Mca)E[Phe(4-SO3H)]E[Phe(4-SO3H)]LD[Phe(4-SO3H)]DFLPET(X1)EPL-OH; N-terminus assumed): the koff (commonly the first-order rate constant of dissociation) at human P-selectin [1] (Biacore observed rate constant) stood at 0.0068 s⁻¹; at mouse P-selectin (read-out: koff, mouse P-selectin) it was 0.009 s⁻¹. Besides, the kon (commonly the rate constant with which the complex forms) on human P-selectin [1] (Biacore observed rate constant) came out at 640000 M⁻¹ s⁻¹; on mouse P-selectin (read-out: kon, mouse P-selectin), 53000 M⁻¹ s⁻¹. Besides, the Kd – broadly, a measure of binding affinity in units of concentration – at human P-selectin [1] (biotinylated GS(n)P-6 captured on streptavidin chip, P-sel-Ig 2.5 to 60 μg/mL, read-out: Dissociation constant (Kd) to human P-selectin) turned out to be 14 nM.
Turning to “GSP-6: Tyrosine O-sulfate series (X: O; R=H); native N-terminal PSGL-1 sequence containing tyrosine sulfate, hexasaccharide glycan (EYEYLDYDFLPETEPPE; also: tyrosine O-sulfate, positions not given here, hexasaccharide glycan, site not given here) [reference compound]”, the “chemical stability (degraded products by RP-HPLC)” value in data set [2] is listed as “rapidly degrades”. In addition, the “binding to P-selectin compared with E- or L-selectin” value in data set [3] is recorded as “bound to P-selectin more strongly than to E- or L-selectin”.

B1: native PSGL-1: native P-selectin glycopeptide ligand-1, Kd comparison value (protein, UniProt Q14242 42-412, looked up)
P-selectin glycoprotein …: QATEYEYLDYDFLPETEPPEMLRNSTDTTPLTGPGTPESTTVEPAARRSTGLDAGGAVTELTTELANMGNLSTDSAAMEIQTTQPAATEAQTTQPVPTEAQTTPLAATEAQTTRLTATEAQTTPLAATEAQTTPPAATEAQTTQPTGLEAQTTAPAAMEAQTTAPAAMEAQTTPPAAMEAQTTQTTAMEAQTTAPEATEAQTTQPTATEAQTTPLAAMEALSTEPSATEALSMEPTTKRGLFIPFSVSSVTHKGIPMAASNLSVNYPVGAPDHISVKQCLLAILILALVATIFFVCTVVLAVRLSRKGHMYPVRNYSPTEMVCISSLLPDGGEGPSATANGGLSKAKSPGLTPEPREDREGDDLTLHSFLP
In the case of B1, in the data set with human P-selectin [4], the Kd is 73 nM.
